As a reminder, the IC50 is the point on the concentration scale where inhibition reaches its midpoint. A word on the viability: it is a read-out of living cells in per cent, often relative to untreated cells. The term EC50 denotes the concentration that produces a half-maximal response.

Read-outs that look alike come from different tables or passages of the source.

The test system of data set [1] is HeLa cells. Nature of the data set: Cell migration/invasion scratch assay, HeLa. The class given is cell-based. The following applies: 100 μM, 24 h. Here is the method:
Cell migration in the HEK293 and the HeLa cell lines was investigated. The assay was conducted to investigate cell maintenance after being damaged. […] Cells were grown in a 24-well plate until 80% confluence and treated with 2f and 2j for 24 or 48 h compared to the untreated control. The cells in each well were then scratched to create a wound area across the center of the plates using a plastic 20 μL pipette tip. Cell images were taken immediately, and the scratch area was measured at 0, 24, and 48 h. During the experiment, the percentage of wound area was tracked as an indirect assessment. Compared to the control, the percentage of empty area change at each time point was quantified with a Nikon eclipse Ts2R inverted microscope.
Pictures were taken at the start of the experiment (0 h) and 24 h later. […] Scale bars represent 500 μm.

Data set [2] is described as follows: FRAP (ferric reducing antioxidant power) assay. The class given is biochemical. The following applies: Trolox equivalent. From the text: (§1) Three in vitro antioxidant assays (DPPH, FRAP, and ABTS) were utilized to evaluate the antioxidant property of the synthesized compounds. The DPPH (α, α-diphenyl-β-picrylhydrazyl) assay is the well-known approach to determine antioxidant activity using a stable free radical DPPH, measure the absorbance change, and calculate the absorbance change in the percentage of scavenging activity. […] For example, the ferric-tripyridyltriazine (Fe^3+-TPTZ, colorless) complex is reduced to ferrous tripyridyltriazine (Fe^2+-TPTZ) at low pH and introduces a blue color with maximum absorption at 593 nm. The change in absorbance is related to antioxidant activity. However, a significant limitation of these in vitro tests is the non-physiological measurement conditions (no enzymatic condition and no transition metal ion chelating activity); therefore, the results obtained may not reflect the antioxidant activity of the source material under the biological conditions that exist in humans and animals. The ABTS assay involves a more drastic radical that is chemically produced. The use of ABTS for antioxidant activity determination of hydrophilic and lipophilic pure compounds has attracted interest due to its solubility in organic and aqueous media and stability in a wide pH range [31].
The FRAP assay is a method for assessing antioxidant power. Briefly, the FRAP reagent was prepared from acetate buffer pH 3.6, 10 mM TPTZ solution in 40 mM HCl and 20 mM FeCl3.6 H2O in relative proportions of 10:1:1, v/v, respectively. The FRAP reagent was freshly prepared daily. A solution of 5 μL of the sample (3–300 μM, approx.) was mixed with 180 μL of the FRAP reagent in a 96-well plate. The mixture was shaken in the dark for 10 min and incubated at 37 °C for 20 min, and the absorbance was determined at 593 nm. The solution without the sample was used as a blank. All determinations were made in triplicate. Trolox was used as a standard antioxidant and plot the calibration curve between absorbance and concentration. Quercetin was applied as the reference compound. The FRAP values were calculated by comparing the absorbance change in the test sample and represented in μM of Trolox equivalent per μM of sample.

In data set [3] the test system is HeLa cell. The experiment in a line: MTT anticancer activity assay, HeLa cells. The class given is cell-based. The following applies: for Anticancer activity on cervical cancer cells / IC50: HeLa; for IC50 / viability at 100 µM: Homo sapiens. The protocol: (§2) HEK293, HACAT, and HeLa cells were grown in modified Eagles’ minimum essential medium (EMEM, Gibco) with 10% fetal bovine serum (FBS, Gibco), 1% of 100 U/mL streptomycin and 100 U/mL penicillin (Gibco). Cells were seeded in culture flasks and maintained in an incubator at 37 °C in a humidified atmosphere with 5% CO2. After reaching 80–90% of confluence, cells were detached by incubation with 0.25% trypsin-0.2% EDTA (Gibco) for 5 min and plated for experiments.
(§3) This study examined cell cultures of HEK293, HACAT, and HeLa cells. The cytotoxicity of the test samples was carried out by the MTT (3-(4,5-dimethylthiazol-2-yl)-2,5-diphenyltetrazolium bromide) assay. The cells were seeded in 96-well microliter plates (2.0 × 10^4 cells/well). Stock solutions of the test compounds were prepared in DMSO. After 24 h, cells were treated with different concentrations of samples and diluted with media to obtain the final desired concentration. The treated cells were then incubated at 37 °C and 5% CO2 for 24 and 48 h. After incubation, the medium was replaced with 0.05% w/v of MTT solution in PBS and further incubated for 3 h. The solution was then discarded and DMSO was added to dissolve the formed formazan crystals. Each well’s absorbance (A) was measured at 570 nm using a microplate reader (FLUOstar Omega^TM, BMG Labtech, Ortenberg, Germany). All experiments were carried out in triplicate and repeated for at least three experiments.

The nature of data set [4]: DPPH radical scavenging assay. The following applies: for DPPH517nm % SA ± SD: mean of three measurements; for EC50: read-out: DPPH517nm EC50 ± SD. Details: DPPH517nm % SA ± SD: dose or concentration left out as unconfirmed. The class given is biochemical.
From the text: as §1
The DPPH method was followed and modified from a previous study. Trolox was used as a reference. The DPPH stock solution at a concentration of 0.625 mM was prepared in 50% ethanol and kept at 4 °C in the dark. On the day of the experiment, 0.208 mM fresh DPPH working solution was freshly prepared by further diluting with 50% ethanol. […] Each reaction was carried out in a 96-well plate, and 100 μL of test preparation and DPPH solution were added. The 96-well plate was then shaken well for 10 min and kept in the dark at room temperature for 20 min, and the absorbance was recorded at 515–517 nm. According to the method described, delocalization also results in a deep violet color and is quantified as a percentage of scavenging activity. % scavenging activity (SA) = 100 × (Asample − Ablank)/(Acontrol − Ablank)(1) where Acontrol and Asample are the absorbances of the test DPPH without and with a sample, respectively. Ablank is the absorbance of the solvent used. The EC50 values were calculated from the relationship curve of %SA versus sample concentration. The experiment was carried out at least in triplicate.
On the technique in general: Loss of DPPH colour is used to gauge radical scavenging.

The nature of data set [5]: MTT cytotoxicity assay, HEK293 cells. The following applies: human, HEK293 cells, 100 μM; for viability at 24 h, 100 µM: read-out: % Viability ± SD (at 100 μM) HEK293 24 h; for viability at 48 h, 100 µM: read-out: % Viability ± SD (at 100 μM) HEK293 48 h. The class given is cell-based. Here is the method: as §2, §3
The mark [6] stands for this setting: 24 h, read-out: % Viability ± SD (at 100 μM) HeLa 24 h.
Where [7] appears, read: 48 h, read-out: % Viability ± SD (at 100 μM) HeLa 48 h.

Turning to `O=C(c1ccccc1)c1c(-c2ccccc2)oc2c(O)c(O)ccc2c1=O` [2f, 3-Benzoyl-7,8-dihydroxy-2-phenyl-4H-chromen-4-one], in data set [1], the “Invasion of HeLa cells” value is “significantly inhibited the invasion of HeLa cells”. In data set [2], the “FRAP593nm Value ± SD (TE)” value is given as 1.70 ± 0.138 µM Trolox/1 µM of Synthesized Compounds. For the same molecule, in data set [3] (24 h), the “Anticancer activity on cervical cancer cells” value was “contained anticancer activity” and the IC50 worked out at 191 ± 6.01 µM. In addition, the viability at 100 µM in data set [3] (setting [6]) was determined as 109.3 ± 0.92%. Further, the viability at 100 µM in data set [3] (setting [7]) stood at 29.2 ± 0.4%. In data set [4], the “DPPH517nm % SA ± SD” value amounted to 93.55 ± 3.20% and the EC50 is 34.1 ± 3.28 µM. In data set [5], the viability at 24 h, 100 µM worked out at 105 ± 1.19% and the viability at 48 h, 100 µM worked out at 74.7 ± 0.83%.
`O=C(Oc1ccc2c(=O)c(C(=O)c3ccccc3)c(-c3ccccc3)oc2c1O)c1ccccc1` [2j, 3-Benzoyl-8-hydroxy-4-oxo-2-phenyl-4H-chromen-7-yl benzoate]: in data set [1], the “Invasion of HeLa cells” value was “significantly inhibited the invasion of HeLa cells”. Also, the “FRAP593nm Value ± SD (TE)” value in data set [2] is reported as 0.34 ± 0.078 µM Trolox/1 µM of Synthesized Compounds. In data set [3] (24 h), the “Anticancer activity on cervical cancer cells” value is “contained anticancer activity” and the IC50 turned out to be 101 ± 3.18 µM. Besides, the viability at 100 µM in data set [3] (setting [6]) was found to be 65.2 ± 1.42%. The viability at 100 µM in data set [3] (setting [7]) came to 30 ± 1.23%. Moreover, in data set [4], the “DPPH517nm % SA ± SD” value worked out at 92.88 ± 0.46% and the EC50 was 49.9 ± 11 µM. Besides, in data set [5], the viability at 24 h, 100 µM is 96 ± 2.62% and the viability at 48 h, 100 µM worked out at 71.6 ± 5.19%.
Take `O=c1c(O)c(-c2ccc(O)c(O)c2)oc2cc(O)cc(O)c12` [Quercetin, quercetin, reference compound]: the “Invasion of HeLa cells” value in data set [1] is “significantly inhibited the invasion of HeLa cells”. Also, the “FRAP593nm Value ± SD (TE)” value in data set [2] is 3.35 ± 0.231 µM Trolox/1 µM of Synthesized Compounds. In addition, the midpoint of inhibition in data set [3] (24 h), the IC50, lay at 192.4 ± 1.27 µM. The viability at 100 µM in data set [3] (setting [6]) was determined as 69.1 ± 1.93%. Also, the viability at 100 µM in data set [3] (setting [7]) was found to be 19.2 ± 0.25%. For the same molecule, in data set [4], the “DPPH517nm % SA ± SD” value was determined as 93.89 ± 2.04% and the EC50 was determined as 18.3 ± 5.62 µM. In data set [5], the viability at 24 h, 100 µM stood at 102 ± 1.58% and the viability at 48 h, 100 µM amounted to 86.6 ± 4.66%.

The values above are taken from publication PMC10096453, “One-Pot Synthesis and Evaluation of Antioxidative Stress and Anticancer Properties of an Active Chromone Derivative” (Molecules, 2023).
